Data on 32 molecules can be found in the METLIN SMRT retention time set (Domingo-Almenara et al. 2019).

A short description of this data set: gradient 5% acetonitrile 3 min, to 50% in 2 min, to 85% in 15 min, held 3 min, 100 µL/min. The conditions noted are these: column: Zorbax Extend-C18 2.1 x 50 mm; eluents: water / acetonitrile, 0.1% formic acid. The method, boiled down: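 Values are retention times taken from adduct peaks that software picked and an analyst inspected. The pure standards were run as mixtures of ~100 molecules on HPLC linked to a quadrupole time-of-flight mass spectrometer, in positive and negative ionization mode. A Zorbax Extend-C18 column (2.1 × 50 mm, 1.8 μm) was used at 100 μL/min with water and acetonitrile, each including 0.1% formic acid.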
In the case of `O=C1NCCCn2cc(S(=O)(=O)N3CCN(c4ccccn4)CC3)cc21`, the RP-LC retention time turned out to be 550 s.
Under `Cc1nn(C)cc1CN(C)C(=O)c1cc2c(=O)n(CC(C)C)c3ccccc3n2n1` stands 808 s; under `CCCn1cc(-c2ccncc2)cc1C(=O)NCc1ccccc1C`, 689 s; under `O=C(Cn1cnc2nc(N3CCCC(C(=O)NC4CC4)C3)sc2c1=O)Nc1ccc(F)c(F)c1` (configuration not stated), 705 s.
In turn, `CCOC(=O)c1c(C)nc(C)c(C(=O)OCC)c1-c1cccnc1` displayed an RP-LC retention time of 810 s.
Under `Cc1ccc(-c2ccc(=O)n(Cc3nc(-c4ccc5c(c4)OCO5)no3)n2)cc1` stands 1020 s; under `CC(=O)N1CCN(c2nc3c(s2)CC(C(=O)N2CCCCCC2)CC3)CC1` (configuration not stated), 614 s; under `CCc1ccc2[nH]c3c(c(=O)c2c1)CN(CC(=O)NCc1ccccc1Cl)CC3`, 633 s.
The molecule `Cc1ccc(NC(=O)Cn2cnc3nc(N4CCCC(C(=O)NC5CC5)C4)sc3c2=O)cc1C` (configuration not stated) came in with an RP-LC retention time of 693 s.
Under `Cc1ccc(C(=O)C2=C(O)C(=O)N(c3ncccn3)C2c2cccc(Cl)c2)o1` (configuration not stated) stands 732 s.
Regarding `CCc1nc(-c2ccc(S(=O)(=O)N3CCC(C(=O)Nc4ccc5c(c4)OCCO5)CC3)cc2)no1`, the RP-LC retention time is 929 s.
`O=C(NC1CCCCC1)c1cc2ccccc2cc1O` showed an RP-LC retention time of 1180 s.
Under `Cc1cc(Cl)ccc1OCC(=O)N1CCn2c(nnc2C(C)C)C1` stands 665 s; under `O=C(C1CCCN(c2nn3c(=O)c4c(nc3s2)CCCC4)C1)N1CCN(c2ccccc2F)CC1` (configuration not stated), 868 s; under `CN1CCc2nnc(C3CCN(C(=O)Nc4ccc(Cl)cc4F)C3)n2CC1` (configuration not stated), 573 s.
The value for `O=C(Nc1ccccc1)C1CCCN(S(=O)(=O)c2cc(-c3noc(C4CCCC4)n3)cs2)C1` (configuration not stated) was 1220 s.
On to `CNc1nccc(N2CCC(CC(=O)NCCCN3CCCC3=O)CC2)n1`, for which the RP-LC retention time amounted to 490 s.
The molecule `Cc1nc(-c2noc(-c3ccccc3)n2)cn1CC(=O)NCc1ccc(F)cc1F` registered an RP-LC retention time of 838 s.
The molecule `Cc1ccc(-c2cc(C(=O)N3CCN(c4ccccn4)CC3)nn2C2CCS(=O)(=O)C2)cc1C` (configuration not stated) had an RP-LC retention time of 674 s.
The value for `Nc1nc(Nc2ccccc2Cl)nc2ccccc12` was 615 s.
As for `Cc1cc2oc(C(=O)NCC(c3ccccc3)N(C)C)cc(=O)c2cc1C` (configuration not stated), the RP-LC retention time came to 639 s.
As for `COc1cccc(-n2ccn3cc(-c4cccc(Cl)c4)nc3c2=O)c1`, the RP-LC retention time worked out at 837 s.
Under `COc1ccc(-n2nc3c(N4CCCC(C(=O)NCCc5cccs5)C4)nnc(C)c3c2C)cc1` (configuration not stated) stands 722 s; under `CCC(c1cccs1)N1C(=O)[C@H]2CN(S(=O)(=O)c3cc(C)ccc3C)C[C@H]2C1=O` (some centres not stated), 1090 s.
Consider `COc1ccc(Cl)cc1S(=O)(=O)N1CCC(CN2CCCCC2)CC1`, for which the RP-LC retention time worked out at 584 s.
Molecule `O=S(=O)(Nc1ccc(F)cc1)c1cccc2cccnc12` yielded an RP-LC retention time of 792 s.
The value for `COc1cc(-c2ccccc2)nc2ccc(NS(=O)(=O)c3ccc(NC(C)=O)cc3)cc12` was 653 s; that for `Fc1ccc(-c2noc(Cc3nnc(-c4ccc(Cl)cc4)o3)n2)cc1` was 1070 s.
Molecule `CCCNC(=O)CN1C(=O)CCn2nc(-c3cn(C)c4ccccc34)cc21` returned an RP-LC retention time of 730 s.
For the molecule `COc1ccccc1N1CCN(C(=O)C2CCCN(c3cnc4nccnc4c3)C2)CC1` (configuration not stated), the RP-LC retention time worked out at 688 s.
Regarding `Cc1cc(NC(=O)C2(C)Oc3cccnc3NC2=O)ccc1F` (configuration not stated), the RP-LC retention time came out at 739 s.
Molecule `CCOC(=O)c1cc(S(=O)(=O)N2CCCC2C(=O)Nc2cccc(C)n2)cn1C` (configuration not stated) gave an RP-LC retention time of 847 s.
